For one experiment, the target named is PI3Kα (p110α/p85α) (Homo sapiens (Human), UniProt P42336). The experiment in a line: PI3Kα enzymatic test by measuring the consumption of ATP. Format: biochemical. As to the method:
Model 2: PI3Kα Enzymatic Test by Measuring the Consumption of ATP.
The test uses a lucifeurerin/luciferase system to measure the concentration of ATP and its consumption during the enzymatic reaction. The test is performed in 96-well format (Corning/Costar 96 black flat-bottomed half-wells plate, ref. 3694) in a total volume of 30 μl.
To 1 μl of inhibitor in 100% DMSO are added (final concentrations) 50 μM of the substrate PIP2 ((L-α-phosphatidyl-D-myoinositol 4,5-bisphosphate, Echelon 117P-4516-0500), 2 μM of ATP and 1.7 μg/ml of PI3Kα, (p110α/p85α, Invitrogen PV4788) in a buffer of Tris/HCl 50 mM pH 7.5, EGTA 1 mM, MgCl2 10 mM, Chaps 0.03%, 1 mM DTT). After 90 minutes, the reaction is quenched by adding 20 μl/well of KinaseGlo reagent (Promega V6713). After 10 minutes in the dark, the luminescence is read on the PHERAStar microplate reader (reading at 0.8 sec/well).
The IC50 values are determined by the preparation of successive threefold dilutions on at least a scale of 10 000.

Another experiment has as its system U87MG tumour cells. The experiment in a line: Test of in vitro proliferation of U87MG tumour cells. Format: cell-based. The conditions noted are these: U87MG cells, 72 hours, read-out: U87 Cell Proliferation IC50. As to the method: Model 4: Test of in vitro Proliferation of U87MG Tumour Cells.
The cell growth is determined with the reagent CellTiter 96 AQueous One Solution Cell Proliferation Assay from Promega (Cat. No. G3581).

Experiment [1] concerns the target mTOR (human recombinant aa mTOR 1360-2549) (Homo sapiens (Human), UniProt P42345). The experiment in a line: mTOR enzymatic test by TR-FRET (phosphorylation of GFP-4EBP1). The experiment is classed as biochemical. As to the method: Model 1: mTOR Enzymatic Test by TR-FRET (Time-resolved Fluorescence Resonance Energy Transfer).
The test detects the phosphorylation of the substrate GFP-4EBP1 using a terbium-labelled antibody that is specific for the phospho-Thr46 epitope. Binding of the Tb-antibody to the phosphorylated GFP peptide allows the transfer of energy from Tb, excited at 340 nm, to GFP with an increase in the fluorescence emission of the GFP at 520 nm. […] The mixture is incubated for 30 minutes at room temperature. 10 μl of solution are taken up and the reaction is quenched by adding 10 μl of Tb-antibody solution (Invitrogen PV4757)/EDTA (2 nM Tb-Ac and 10 mM EDTA final). After 60 minutes at room temperature, the fluorescence at 490 nm, from the Tb emission, and at 520 nm, from the GFP emission, is measured in a BMG PHERAstar reader equipped with a Lanthascreen™ filter (excitation at 340 nm, emission at 490 and 520 nm). The results are given in the form of the 520/490 ratio.
In general terms: In TR-FRET formats the signal depends on donor and acceptor labels being close together.

[2] abbreviates: read-out: U87 Akt-pS473 % Inhibition or IC50, nM (IC50), U87MG cells.
[3] abbreviates: Homo sapiens, U-87 MG, read-out: U87 Akt-pS473 % Inhibition or IC50, nM (IC50), U87MG cells.

Read-outs that look alike come from different tables or passages of the source.

mTOR (human recombinant aa mTOR 1360-2549), sequence (P42345 1360-2549): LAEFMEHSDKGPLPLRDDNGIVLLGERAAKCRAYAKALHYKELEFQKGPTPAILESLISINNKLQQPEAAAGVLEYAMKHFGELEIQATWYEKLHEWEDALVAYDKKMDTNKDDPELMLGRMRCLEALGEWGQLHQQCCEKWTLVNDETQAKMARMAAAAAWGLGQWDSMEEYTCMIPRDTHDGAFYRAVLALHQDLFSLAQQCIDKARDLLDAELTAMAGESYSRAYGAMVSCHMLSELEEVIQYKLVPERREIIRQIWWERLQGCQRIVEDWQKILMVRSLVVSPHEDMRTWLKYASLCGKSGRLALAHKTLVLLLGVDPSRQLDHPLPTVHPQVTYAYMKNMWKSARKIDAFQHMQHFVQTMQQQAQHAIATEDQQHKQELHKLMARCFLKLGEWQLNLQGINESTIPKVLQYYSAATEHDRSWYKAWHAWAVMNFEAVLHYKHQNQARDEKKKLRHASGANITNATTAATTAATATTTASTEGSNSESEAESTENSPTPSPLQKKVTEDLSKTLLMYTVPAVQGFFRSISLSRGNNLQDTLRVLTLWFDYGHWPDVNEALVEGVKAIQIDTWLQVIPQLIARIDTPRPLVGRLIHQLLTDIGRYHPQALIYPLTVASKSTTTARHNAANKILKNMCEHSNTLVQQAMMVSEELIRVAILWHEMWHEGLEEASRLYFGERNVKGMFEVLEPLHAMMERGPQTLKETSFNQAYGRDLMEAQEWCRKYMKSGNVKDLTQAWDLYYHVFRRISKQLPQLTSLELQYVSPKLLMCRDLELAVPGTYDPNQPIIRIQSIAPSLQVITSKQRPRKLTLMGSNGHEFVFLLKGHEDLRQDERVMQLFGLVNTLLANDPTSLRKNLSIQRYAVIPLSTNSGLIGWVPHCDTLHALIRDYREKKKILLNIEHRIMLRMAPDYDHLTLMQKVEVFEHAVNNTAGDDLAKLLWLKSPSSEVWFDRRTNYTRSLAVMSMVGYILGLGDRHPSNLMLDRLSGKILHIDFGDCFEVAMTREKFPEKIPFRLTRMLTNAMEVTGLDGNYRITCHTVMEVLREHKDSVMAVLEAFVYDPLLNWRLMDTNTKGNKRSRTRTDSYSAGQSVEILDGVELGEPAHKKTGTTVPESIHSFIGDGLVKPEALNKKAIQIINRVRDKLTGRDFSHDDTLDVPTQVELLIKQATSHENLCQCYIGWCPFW
PI3Kα (p110α/p85α), sequence (P42336 whole entry): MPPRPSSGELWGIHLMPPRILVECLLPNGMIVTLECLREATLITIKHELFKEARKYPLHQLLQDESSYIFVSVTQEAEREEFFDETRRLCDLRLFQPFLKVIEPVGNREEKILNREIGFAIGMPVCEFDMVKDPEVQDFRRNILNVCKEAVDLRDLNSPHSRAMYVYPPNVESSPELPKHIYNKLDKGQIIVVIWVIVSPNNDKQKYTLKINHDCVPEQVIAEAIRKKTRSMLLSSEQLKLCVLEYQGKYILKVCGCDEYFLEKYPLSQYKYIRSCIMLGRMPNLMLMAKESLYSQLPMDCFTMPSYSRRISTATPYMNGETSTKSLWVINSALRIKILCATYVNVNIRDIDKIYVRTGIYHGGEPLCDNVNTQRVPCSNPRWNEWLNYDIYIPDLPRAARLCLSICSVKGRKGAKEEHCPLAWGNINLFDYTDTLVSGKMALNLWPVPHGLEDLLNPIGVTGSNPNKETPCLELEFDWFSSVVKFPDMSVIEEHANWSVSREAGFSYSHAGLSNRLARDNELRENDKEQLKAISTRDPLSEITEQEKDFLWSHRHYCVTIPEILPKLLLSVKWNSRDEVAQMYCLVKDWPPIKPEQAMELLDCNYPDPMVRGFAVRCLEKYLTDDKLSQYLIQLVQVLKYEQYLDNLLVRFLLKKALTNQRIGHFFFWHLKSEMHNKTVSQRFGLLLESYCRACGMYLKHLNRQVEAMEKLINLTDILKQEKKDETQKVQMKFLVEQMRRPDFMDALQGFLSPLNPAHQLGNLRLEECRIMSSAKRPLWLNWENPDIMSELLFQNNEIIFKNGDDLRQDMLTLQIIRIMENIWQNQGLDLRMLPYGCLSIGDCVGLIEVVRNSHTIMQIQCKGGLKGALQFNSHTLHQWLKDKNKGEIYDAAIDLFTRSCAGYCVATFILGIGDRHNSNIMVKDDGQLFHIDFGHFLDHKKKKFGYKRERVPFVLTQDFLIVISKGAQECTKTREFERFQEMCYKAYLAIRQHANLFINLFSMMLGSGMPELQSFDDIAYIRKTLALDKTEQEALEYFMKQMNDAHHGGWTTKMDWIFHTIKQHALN
PI3Kα (p110α/p85α), sequence (P27986 whole entry partner): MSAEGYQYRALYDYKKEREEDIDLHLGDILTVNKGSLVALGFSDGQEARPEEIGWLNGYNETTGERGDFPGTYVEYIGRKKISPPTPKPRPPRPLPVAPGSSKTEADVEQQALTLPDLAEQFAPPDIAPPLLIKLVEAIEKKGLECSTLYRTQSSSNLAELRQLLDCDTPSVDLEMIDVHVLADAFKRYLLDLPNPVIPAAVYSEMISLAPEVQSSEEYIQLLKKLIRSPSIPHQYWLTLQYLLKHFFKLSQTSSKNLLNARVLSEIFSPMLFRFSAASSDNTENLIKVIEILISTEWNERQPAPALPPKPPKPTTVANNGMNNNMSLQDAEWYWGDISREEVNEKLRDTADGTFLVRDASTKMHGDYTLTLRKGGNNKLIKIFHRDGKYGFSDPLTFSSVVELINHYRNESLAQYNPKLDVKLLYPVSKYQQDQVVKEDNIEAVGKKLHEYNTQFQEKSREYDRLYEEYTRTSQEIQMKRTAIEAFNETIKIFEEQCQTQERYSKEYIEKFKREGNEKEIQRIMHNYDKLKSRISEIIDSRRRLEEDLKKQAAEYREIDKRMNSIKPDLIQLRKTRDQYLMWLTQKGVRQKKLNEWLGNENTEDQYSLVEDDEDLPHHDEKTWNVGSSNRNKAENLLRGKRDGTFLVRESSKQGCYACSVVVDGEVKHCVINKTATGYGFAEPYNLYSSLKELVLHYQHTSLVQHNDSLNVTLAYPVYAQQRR
Protocol for Akt-pS473 in U87MG cells: Model 3: Cellular Test of Phosphorylation of the Epitope S473 of the Akt Protein on the U87MG Line Via an ELISA Test
An electrochemiluminescence signal is generated by a ruthenium-labelled anti-rabbit antibody.
After culturing for 16-20 hours (the cells are at 100% of confluence) at 37° C. under 5% CO2, 1 μl of the chemical compounds in 100% DMSO (1% DMSO final concentration on the cells) is added. The cells are incubated with the compounds for 3 hours at 37° C. under 5% CO2.
The free sites are blocked with 150 μl/well of a buffer of 50 mM Tris pH 7.5, 0.15 M NaCl, 0.02% Tween 20, 3% BSA with stirring at 450 rpm for 1 hour at room temperature, followed by a step of washing with 3×300 μl of a buffer of 50 mM Tris pH 7.5, 0.15 M NaCl, 0.02% Tween 20.
15 μl of cell lysate are mixed with 15 μl of a 50 mM buffer of Tris pH 7.5, 0.15 M NaCl, 0.02% Tween 20, 1% BSA in a precoated ELISA plate (see above), and incubated for 1 hour at room temperature with stirring, followed by a step of washing with 3×300 μl of a buffer of 50 mM Tris pH 7.5, 0.15 M NaCl, 0.02% Tween 20. The pS473 epitope of Akt is detected with a rabbit polyclonal antibody (Cell Signaling, SC9271), diluted 100-fold in 50 mM Tris pH 7.5, 0.15 M NaCl, 0.02% Tween 20, 1% BSA, 25 μl/well (incubation for 1 hour at room temperature with stirring at 450 rpm).
After washing (see above), revelation is performed with a ruthenium-labelled anti-rabbit antibody (MSD R32AB1), diluted 3000-fold in a 50 mM buffer of Tris pH 7.5, 0.15 M NaCl, 0.02% Tween 20, 1% BSA, 25 μl/well, followed by incubation for 1 hour at room temperature with stirring at 450 rpm, and the plates are covered with aluminium.
After a further washing step, the plates are emptied and 150 μl of MSD Read Buffer T diluted fourfold with water are added. The electrochemiluminescence is measured on the MSD Sector Imager 6000.

In the case of `CCN1CC(C)(C)Oc2nc(N3CC4CCC(C3)O4)nc(-c3ccc(NC(=O)Nc4ccc(OC)nc4)c(F)c3)c2C1=O` [Example 124, 1-{4-[6-Ethyl-8,8-dimethyl-2-(8-oxa-3-azabicyclo[3.2.1]oct-3-yl)-5-oxo-5,6,7,8-tetrahydro-9-oxa-1,3,6-triazabenzocyclohepten-4-yl]-2-fluorophenyl}-3-(6-methoxypyridin-3-yl)urea], the “PI3Ka IC50” value at PI3Kα (p110α/p85α) is listed as over 10000 nM. In addition, the IC50 in the experiment on Akt-pS473 in U87MG cells (setting [2]) amounted to 61 nM; with U87MG tumour cells (Homo sapiens, U-87 MG, 72 h), 115 nM; in experiment [1] it was 20 nM.
Consider `CCN1CC(C)(C)Oc2nc(N3CCOC[C@@H]3C)nc(-c3ccc(NC(=O)NC)cc3F)c2C1=O` [Example 11, 1-{4-[6-ethyl-8,8-dimethyl-2-((S)-3-methylmorpholin-4-yl)-5-oxo-5,6,7,8-tetrahydro-9-oxa-1,3,6-triazabenzocyclohepten-4-yl]-3-fluorophenyl}-3-methylurea], for which the “PI3Ka IC50” value on PI3Kα (p110α/p85α) is given as 2300 nM. For the same molecule, the IC50 came to 61 nM with Akt-pS473 in U87MG cells (setting [3]); 271 nM in the experiment with U87MG tumour cells (Homo sapiens, U-87 MG, 72 h); 13 nM in experiment [1].
For `CCN1CC(C)(C)Oc2nc(N3CC4CCC(C3)O4)nc(-c3ccc(NC(=O)NC)cc3F)c2C1=O` [Example 47, 1-{4-[6-Ethyl-8,8-dimethyl-2-(8-oxa-3-azabicyclo[3.2.1]oct-3-yl)-5-oxo-5,6,7,8-tetrahydro-9-oxa-1,3,6-triazabenzocyclohepten-4-yl]-3-fluorophenyl}-3-methylurea], the “PI3Ka IC50” value at PI3Kα (p110α/p85α) is given as over 10000 nM. Further, the IC50 in the experiment on Akt-pS473 in U87MG cells (setting [3]) was 151 nM; in the experiment with U87MG tumour cells (Homo sapiens, U-87 MG, 72 h), 564 nM; in experiment [1], 34 nM.
Turning to `CCN1CC(C)(C)Oc2nc(N3CC4CCC(C3)O4)nc(-c3ccc(NC(=O)Nc4ccc(N5CCCCC5)nc4)c(F)c3)c2C1=O` [Example 31, 1-{4-[6-Ethyl-8,8-dimethyl-2-(8-oxa-3-azabicyclo[3.2.1]oct-3-yl)-5-oxo-5,6,7,8-tetrahydro-9-oxa-1,3,6-triazabenzocyclohepten-4-yl]-2-fluorophenyl}-3-(3,4,5,6-tetrahydro-2H-[1,2′]bipyridinyl-5′-yl)urea], the “PI3Ka IC50” value at PI3Kα (p110α/p85α) is over 10000 nM. Also, the IC50 came to 17 nM in the experiment with Akt-pS473 in U87MG cells (setting [3]); 35 nM in the experiment on U87MG tumour cells (Homo sapiens, U-87 MG, 72 h); 65 nM in experiment [1].
For `CCN1CC(C)(C)Oc2nc(N3CCOC[C@@H]3C)nc(-c3ccc(NC(=O)Nc4ccc(N5CCN(C)CC5)nc4)cc3)c2C1=O` [Example 174, 1-{4-[6-Ethyl-8,8-dimethyl-2-((S)-3-methylmorpholin-4-yl)-5-oxo-5,6,7,8-tetrahydro-9-oxa-1,3,6-triazabenzocyclohepten-4-yl]phenyl}-3-[6-(4-methylpiperazin-1-yl)pyridin-3-yl]urea] the same measures were 326 nM, 36 nM, 125 nM and 22 nM.
As to `CCN1CC(C)(C)Oc2nc(N3CCOC[C@@H]3C)nc(-c3ccc(NC(=O)Nc4cc(OC)ccc4F)cc3)c2C1=O` [Example 213, 1-{4-[6-Ethyl-8,8-dimethyl-2-((S)-3-methylmorpholin-4-yl)-5-oxo-5,6,7,8-tetrahydro-9-oxa-1,3,6-triazabenzocyclohepten-4-yl]phenyl}-3-(2-fluoro-5-methoxyphenyl)urea], at PI3Kα (p110α/p85α), the “PI3Ka IC50” value turned out to be 991 nM. In addition, the IC50 in the experiment on Akt-pS473 in U87MG cells (setting [3]) is 20 nM; with U87MG tumour cells (Homo sapiens, U-87 MG, 72 h), 103 nM; in experiment [1], 48 nM.
Take `CCN1CC(C)(C)Oc2nc(N3CC4CCC(C3)O4)nc(-c3ccc(NC(=O)Nc4ccc(C(=O)N(C)CCN(C)C)cc4)cc3)c2C1=O` [Example 176, N-(2-Dimethylaminoethyl)-4-(3-{4-[6-ethyl-8,8-dimethyl-2-(8-oxa-3-azabicyclo[3.2.1]oct-3-yl)-5-oxo-5,6,7,8-tetrahydro-9-oxa-1,3,6-triazabenzocyclohepten-4-yl]phenyl}ureido)-N-methylbenzamide]: the “PI3Ka IC50” value at PI3Kα (p110α/p85α) was 100 nM. Also, the IC50 in the experiment on Akt-pS473 in U87MG cells (setting [3]) is 314 nM; in the experiment on U87MG tumour cells (Homo sapiens, U-87 MG, 72 h), 83 nM; in experiment [1] it was 69 nM.
`CCN1CC(C)(C)Oc2nc(N3CC4CCC(C3)O4)nc(-c3ccc(NC(=O)Nc4ccc(OC)nc4)c(F)c3)c2C1=O` [Example 240, 1-{4-[6-Ethyl-8,8-dimethyl-2-(8-oxa-3-azabicyclo[3.2.1]oct-3-yl)-5-oxo-5,6,7,8-tetrahydro-9-oxa-1,3,6-triazabenzocyclohepten-4-yl]-2-fluorophenyl}-3-(6-methoxypyridin-3-yl)urea]: the “PI3Ka IC50” value on PI3Kα (p110α/p85α) is recorded as over 10000 nM. In addition, the IC50 in the experiment on Akt-pS473 in U87MG cells (setting [2]) came out at 29 nM; with U87MG tumour cells, 75 nM; in experiment [1], 61 nM.
For the molecule `CCN1CC(C)(C)Oc2nc(N3C4CCC3COC4)nc(-c3ccc(NC(=O)OCCO)cc3)c2C1=O` [Example 65, {4-[6-Ethyl-8,8-dimethyl-2-(3-oxa-8-azabicyclo[3.2.1]oct-8-yl)-5-oxo-5,6,7,8-tetrahydro-9-oxa-1,3,6-triazabenzocyclohepten-4-yl]phenyl}carbamic acid 2-hydroxyethyl ester], on PI3Kα (p110α/p85α), the “PI3Ka IC50” value came to 22400 nM. Moreover, the IC50 came to 27 nM with Akt-pS473 in U87MG cells (setting [3]); 257 nM in the experiment on U87MG tumour cells (Homo sapiens, U-87 MG, 72 h); 27 nM in experiment [1].
With `CCN1CC(C)(C)Oc2nc(N3CCOC[C@@H]3C)nc(-c3ccc(NC(=O)Nc4cccc(C)n4)cc3)c2C1=O` [Example 36, 1-{4-[6-Ethyl-8,8-dimethyl-2-((S)-3-methylmorpholin-4-yl)-5-oxo-5,6,7,8-tetrahydro-9-oxa-1,3,6-triazabenzocyclohepten-4-yl]phenyl}-3-(6-methylpyridin-2-yl)urea], the “PI3Ka IC50” value at PI3Kα (p110α/p85α) is on record as 4400 nM. The IC50 amounted to 129 nM with Akt-pS473 in U87MG cells (setting [3]); 686 nM with U87MG tumour cells (Homo sapiens, U-87 MG, 72 h); 55 nM in experiment [1].
Regarding `CCNC(=O)Nc1ccc(-c2nc(N3CCOCC3)nc3c2C(=O)NCC(C)(C)O3)cc1` [Example 94, 1-[4-(8,8-Dimethyl-2-morpholin-4-yl-5-oxo-5,6,7,8-tetrahydro-9-oxa-1,3,6-triazabenzocyclohepten-4-yl)phenyl]-3-ethylurea], on PI3Kα (p110α/p85α), the “PI3Ka IC50” value amounted to 7320 nM. Further, the IC50 in the experiment with Akt-pS473 in U87MG cells (setting [3]) is over 10000 nM; in experiment [1], 112 nM.
For `CN1CC(C)(C)Oc2nc(N3CC4CCC(C3)O4)nc(-c3ccc(NC(=O)Nc4ccc(N5C6CCC5COC6)nc4)c(F)c3)c2C1=O` [Example 245, 1-{2-Fluoro-4-[6,8,8-trimethyl-2-(8-oxa-3-azabicyclo[3.2.1]oct-3-yl)-5-oxo-5,6,7,8-tetrahydro-9-oxa-1,3,6-triazabenzocyclohepten-4-yl]phenyl}-3-[6-(3-oxa-8-azabicyclo[3.2.1]oct-8-yl)pyridin-3-yl]urea] the same measures were over 10000 nM, 67 nM and 63 nM.
Take `CCN1CC(C)(C)Oc2nc(N3CC4CCC(C3)O4)nc(-c3ccc(NC(=O)NCC(C)(C)O)c(F)c3)c2C1=O` [Example 24, 1-{4-[6-ethyl-8,8-dimethyl-2-(8-oxa-3-azabicyclo[3.2.1]oct-3-yl)-5-oxo-5,6,7,8-tetrahydro-9-oxa-1,3,6-triazabenzocyclohepten-4-yl]-2-fluorophenyl}-3-(2-hydroxy-2-methylpropyl)urea]: the IC50 with Akt-pS473 in U87MG cells (setting [3]) was over 1000 nM; with U87MG tumour cells (Homo sapiens, U-87 MG, 72 h), over 10000 nM; in experiment [1], 1070 nM.
For the molecule `CCN1CC(C)(C)Oc2nc(N3CC4CCC(C3)O4)nc(-c3ccc(NC(=O)O[C@@H](C)CO)c(F)c3)c2C1=O` [Example 61, {4-[6-Ethyl-8,8-dimethyl-2-(8-oxa-3-azabicyclo[3.2.1]oct-3-yl)-5-oxo-5,6,7,8-tetrahydro-9-oxa-1,3,6-triazabenzocyclohepten-4-yl]-2-fluorophenyl}carbamic acid (S)-2-hydroxy-1-methylethyl ester], the IC50 in the experiment on Akt-pS473 in U87MG cells (setting [3]) was over 1000 nM; in the experiment with U87MG tumour cells (Homo sapiens, U-87 MG, 72 h), 4670 nM; in experiment [1], 993 nM.

Source of the values: patent publication US9120812B2, “Pyrimidooxazocine derivatives as mTOR-inhibitors” (SANOFI, priority 2012, dated 2015).
